# Results as given in patent publication US20080044405A1, “Noble metal complex-mediated immunosuppression” (President and Fellows of Harvard College, priority 2006, published 2008).
# “And” between values parts separate entries of the source, which are not always exact repeats. Identical values can stand only once. Like-named read-outs stand apart in the source and are kept apart here.
# How the values were obtained:
# DR1-HA = DR1-HA (Homo sapiens, UniProt P01903+P01911, A100R/D57E/F55L/F60I/F76Y/I96L/L162R/M171V/P40L/Q125E/R42F/V115G/Y59C); experiment: activation of sodium aurothiomalate by hypochlorite, peptide release ELISA; assay type: binding; conditions: pH 7.4, final compound 10 μM, oxidant 0-10 μM, overnight 37° C.
# Experimental: Activation of sodium aurothiomalate (sodium Au(I)-thiomalate, 8) by sodium hypochlorite (NaOCl). Sodium aurothiomalate (8; 300 μM) and a control, thiomalate (D,L-mercaptosuccinic acid, 9), were dissolved in PBS and incubated for 1 h at 20° C. with increasing concentrations of NaOCl. After 1 h, 5 μl of each reaction stock solution was added to DR1-HA-biotin (0.1 μM) in PBS (pH 7.4). The final concentration of compounds 8 and 9 was 10 μM. After incubation of the protein with added compound overnight at 37° C., the amount of biotinylated HA peptide that bound to DR1 was determined by chemiluminescent ELISA.
# Activation of sodium aurothiomalate (Au(I)-thiomalate, 8) by sodium hypochlorite (NaOCl). The concentration of sodium hypochlorite (NaOCl) solution was determined prior to each use by measuring the absorbance at 292 nm (ε292=350 M^−1cm^−1). Sodium aurothiomalate (8), 300 μM, was incubated for one hour at 20° C. in the presence of increasing concentrations of NaOCl (0 μM, 100 μM, 125 μM, 150 μM, and 300 μM) in PBS (pH 7.4). As a control, thiomalate (D,L-mercaptosuccinic acid, 9), 300 μM, was also treated with the identical concentrations of NaOCl. After one hour, 5 μL of each reaction stock solution was added to 145 μL of DR1-HA-biotin complex in PBS (pH 7.4). The final protein concentration was 0.1 μM and the final concentration of compounds 8 and 9 was 10 μM. Final concentrations of oxidant were 0, 3.33, 4.17, 5 and 10 μM. Each concentration of oxidant was tested in quadruplicate. After incubating overnight at 37° C., the amount of biotinylated HA peptide that remained bound to DR1 was determined using the chemiluminescent ELISA described above.
# [1] = molecular target: DR1-CLIP (fluorescently labeled CLIP bound to HLA-DR1) (Homo sapiens, UniProt P01903+P01911, A100R/D57E/F55L/F60I/F76Y/I96L/L162R/M171V/P40L/Q125E/R42F/V115G/Y59C); experiment: fluorescence polarization screen of peptide release from DR1-CLIP (high-throughput and focused metal screen); assay type: binding; conditions: for ability to disrupt DR1-CLIP association, focused screen of metal complexes (FIG. 1a): 250 μM, ~20 h, 37° C., pH 5.0; for activity in high-throughput screen (peptide release by fluorescence polarization): 28,000 compounds screened, HLA-DM present, pH 5
# Experimental: To find small-molecule modulators of class II MHC-peptide interactions, we used a high-throughput, fluorescence polarization assay to screen 28,000 compounds and natural extracts. Each well of a microplate contained a fluorescently labeled class II-associated invariant chain peptide (CLIP) bound to human leukocyte antigen (HLA)-DR1, a class II MHC protein. In addition, HLA-DM, a peptide exchange catalyst required in vivo for efficient loading, was present. The assay was performed at pH 5 to simulate endosomal pH (Morris P et al. (1994) Nature 368:551-4; Weber D A et al. (1996) Science 274:618-20). Compounds were added to the plates by pin transfer and monitored peptide release by fluorescence polarization. The screen uncovered only two active compounds, cisplatin (1) and carboplatin (2), both platinum(II) complexes.
# Fluorescence polarization (FP) based binding assay used for small molecule screening. A FP assay was developed in order to screen small-molecule libraries for chemicals that could modulate peptide binding by class II MHC proteins. The fluorescent DR1-CLIP-AlexaFluor488 (0.1 μM) was used for all FP studies. The concentration of DM used in the screening assay, and when included as a control, was 0.1 μM. Experiments were carried out in a final volume of 40 μl in black, 384-well assay plates (non-binding surface, Costar). The plate was sealed with an aluminum foil seal (Costar), placed in a sealed humidified container, and incubated at 37° C. The FP values for each experimental well were determined using a plate reader (Analyst, LJL Biosystems). A total of 27,937 compounds from several commercial sources were screened using this assay. This assay format was also used to screen several metal complexes and chloride salts as wells as for kinetic studies.
# Focused screen of metal complexes using the FP assay. Based on the results of the primary small molecule screen, a focused screen consisting of several metal complexes and chloride salts was performed using the fluorescence polarization assay. […]. These were tested in duplicate at a concentration of 250 μM. For the focused screen, DR1 (100 nM) bound to a Alexa-Fluor 488-labeled CLIP (af-CLIP) peptide was incubated with several metal complexes and salts (250 μM) for ˜20 h (37° C., pH 5.0), and then peptide release was measured by a fluorescence polarization assay. For comparison, the FP of labeled DR1-CLIP incubated with and without excess unlabeled HA peptide and the FP of af-CLIP peptide alone were also measured.
# DR1-CLIP complex = DR1-CLIP complex (Homo sapiens, UniProt P01903+P01911, A100R/D57E/F55L/F60I/F76Y/I96L/L162R/M171V/P40L/Q125E/R42F/V115G/Y59C); experiment: chemiluminescent ELISA of metal-induced peptide release, DR1-CLIP; assay type: binding; conditions: for IC50: read-out: IC50 for CLIP release from DR1
# [2] = test system: HA peptide-loaded LG-2 cells presented to influenza-specific T cell hybridoma; experiment: T cell activation assay (IL-2 release); assay type: cell-based; conditions: 1-100 μM, APCs treated […], IL-2 ELISA (FIG. 4c)
# [3] = test system: peptide-class II MHC complex; experiment: inhibition of peptide-class II MHC complex formation, cis versus trans; assay type: binding
# DR1-HA(306-318) complex = DR1-HA(306-318) complex (Homo sapiens, UniProt P01903+P01911, A100R/D57E/F55L/F60I/F76Y/I96L/L162R/M171V/P40L/Q125E/R42F/V115G/Y59C); experiment: chemiluminescent ELISA of metal-induced peptide release, DR1-HA; assay type: binding; conditions: read-out: IC50 for HA peptide release from DR1
# [4] = pH 5, overnight 37° C., without DM
structure (smiles),measurement,setting,value
"O=C(O)CC(S)C(=O)O (racemic) [thiomalate, D,L-mercaptosuccinic acid]",peptide release from DR1-HA after treatment of compound with hypochlorite,DR1-HA,does not have an effect
same,peptide release from DR1-HA after treatment of compound with hypochlorite,DR1-HA; listed as 9,did not
"[Cl][Pd-2]([Cl])([Cl])[Cl].[K+].[K+] [Compound K2PdCl4, K2PdCl4]","ability to disrupt DR1-CLIP association, focused screen of metal complexes (FIG. 1a)",[1],active
same,IC50,DR1-CLIP complex; [4],3.48 ± 0.37 µM
[Au+].[C-]#N.[C-]#N.[K+] [K[Au^I(CN)2]],"ability to disrupt DR1-CLIP association, focused screen of metal complexes (FIG. 1a)",[1],did not release peptide from DR1
[Cl][Ni][Cl] [NiCl2],"ability to disrupt DR1-CLIP association, focused screen of metal complexes (FIG. 1a)",[1],inactive
same,activity in titration of DR1-CLIP complex (FIG. 1b),DR1-CLIP complex; pH 5,inactive
"N.N.O=C([O-])C1(C(=O)[O-])CCC1.[Pt+2] [carboplatin, diammine[1,1-cyclobutane-dicarboxylato(2-)-O,O′]—Pt^II]",activity in high-throughput screen (peptide release by fluorescence polarization),[1],active
"N.N.[Cl][Pt][Cl] [cisplatin, cis-diamminedichloroplatinum (II)]",activity in high-throughput screen (peptide release by fluorescence polarization),[1],active
same,inhibition of T-cell activation by metal-pretreated antigen-presenting cells,[2],blocked
same,inhibition of T-cell activation by metal-pretreated antigen-presenting cells,[2]; listed as Cisplatin,more potent
same,activity as inhibitor of peptide-class II MHC complex formation,[3],active
same,IC50,DR1-HA(306-318) complex; pH 5,~4 µM and 5.49 µM
same,IC50,DR1-HA(306-318) complex; pH 7.4,~1 µM and 1.06 µM
same,IC50,DR1-CLIP complex; [4],2.66 ± 0.69 µM
same,IC50,DR1-CLIP complex; pH 7.4,0.77 ± 0.03 µM
"O=C([O-])CC([S-])C(=O)[O-].[Au+].[Na+].[Na+] (stereo not drawn) [sodium Au(I)-thiomalate, sodium aurothiomalate]",peptide release from DR1-HA after treatment of compound with hypochlorite,DR1-HA,causes peptide release from DR1
same,peptide release from DR1-HA after treatment of compound with hypochlorite,DR1-HA; listed as 8,caused peptide release
same,activity in titration of DR1-CLIP complex (FIG. 1b),DR1-CLIP complex; pH 5,did not release peptide from DR1
same,activity in titration of DR1-CLIP complex (FIG. 1b),"DR1-CLIP complex; pH 5, listed as sodium aurothiomalate",inactive
N.N.[Cl][Pt+2][Cl] [transplatin],activity as inhibitor of peptide-class II MHC complex formation,[3],is not
